Patent publication US7816519B2, “Derivatives of 1,2-dihydro-7-hydroxyquinolines containing fused rings” (Life Technologies Corporation, priority 2000, dated 2010)

Assays:
[1] = Fluorescence quantum yield determination against sulforhodamine 101 reference; type: physicochemical; conditions: excited at 560 nm, triplicate
Experimental: The fluorescence quantum yield of Compound 41 is determined using sulforhodamine 101 (in ethyl alcohol) as the reference standard (φF=0.90). The concentrations of sulforhodamine 101 (the reference) and Compound 41 are adjusted to obtain an absorbance of 0.25 (in 1 cm cell) at 560 nm. The sample and reference are each excited at 560 nm and their fluorescence spectra obtained. The fluorescence quantum yield of the sample (φF^X) in the indicated solvent was calculated from the following formula, considering that the peak area (AR) of the emission spectrum of the reference and that of the tested dye (AX) can be readily determined: φF^X=AxφF^RAR where φF^R and φF^X are the fluorescence quantum yields of the reference and the testing dye. The measurements are done in triplicate and the estimated errors are no more than 1%. The quantum yields of Compound 41 are determined to be 0.72 (in methyl alcohol) and 0.68 (in water) respectively.

[2] = test system: Mouse monocyte-macrophage, Abelson Leukemia Virus Transformed (RAW264.7) cells; experiment: Discrimination of live and dead cells by flow cytometry; type: cell-based; conditions: heat-killed fraction (50° C., 20 minutes), 30 minutes on ice
Experimental: Selected dyes of the invention are highly polar, and therefore relatively impermeable to the membranes of live cells. These dyes can therefore be used to discriminate cells that have intact versus compromised cell membranes in a single-color assay as follows: Mouse monocyte-macrophage, Abelson Leukemia Virus Transformed (RAW264.7) cells are trypsinized and washed with phosphate buffered saline (PBS), pH 7.2. Approximately 8-10 million cells suspended in 180 μL of PBS, pH 7.2 are placed in a glass test tube and heated in a water bath at 50° C. for 20 minutes to kill a fraction of the cells. […] The mixture is incubated on ice for 30 minutes and washed twice with PBS, followed by addition of 200 μL of PBS, pH 7.2. An identical aliquot of cells is treated with 2 μL of a 150 μM solution of propidium iodide in water (as a control for dead cells).

[3] = test system: Neurons from zebrafish embryos; experiment: Neuronal tracing using a hydrazide-labeled fluorophore (microinjection); type: cell-based
From the text: Neurons from zebrafish embryos are microinjected with Compound 44, using standard methods as described by Blankenfeld et al. (J. NEUROSCI. METH. 36, 309 (1991)). […] The staining is fixable in the cells using formaldehyde and standard fixing methods.

[4] = Determination of the Ca2+ binding affinity (fluorescence titration, method of Tsien et al.)
Experimental: The fluorescence response and dissociation constant of Compound 58 is determined using the method described by Tsien et al. METH. ENZYM. 172, 230 (1989). Compound 58 (1 mg) is dissolved in deionized water and 5 µL of this solution is diluted into 3 mL of each of two buffers, which are cross diluted to arrive at a series of Ca^2+ concentrations between zero and 35 µM. Emission spectra of the dye solutions are scanned between dilutions to generate a family of curves. Each of these curves has maximal fluorescence emission at approximately 640 nm with an increase in fluorescence emission intensity with increasing Ca^2+ concentration. This intensity change is plotted against the concentration of free Ca^2+ to give a value for the dissociation constant of the indicator. The calculated dissociation constant at 20° C. is 57.5 μM.

[5] = in ethyl alcohol; cited from earlier work
[6] = Fluorescence of selected protein conjugates; type: physicochemical; conditions: protein conjugates prepared with Compound 42 as in Example 47
Experimental: A series of dye conjugates of goat anti-mouse IgG, streptavidin and other proteins, including R-phycoerythrin (R-PE) are prepared by standard means (Haugland et al., METH. MOL. BIOL. 45, 205 (1995); Haugland, METH. MOL. BIOL. 45, 223 (1995); Haugland, METH. MOL. BIOL. 45, 235 (1995)) using Compound 42 and a succinimidyl ester derivative of CY-5 dye.
A solution of the desired protein is prepared at 10 mg/mL in 0.1 M sodium bicarbonate. The labeling reagents are dissolved in DMF at 10 mg/mL. Predetermined amounts of the labeling reagents are added to the protein solutions with stirring. A molar ratio of 10 equivalents of dye to 1 equivalent of protein is typical, though the optimal amount varies with the particular labeling reagent, the protein being labeled and the protein's concentration, and is determined empirically. The reaction mixture is incubated at room temperature for one hour, or on ice for several hours. The dye-protein conjugate is typically separated from free unreacted reagent by size-exclusion chromatography on BIO-RAD P-30 resin equilibrated with PBS. The initial, protein-containing colored band is collected and the degree of substitution is determined from the absorbance at the absorbance maximum of each fluorophore, using the extinction coefficient of the free fluorophore.

CN1c2cc3c(cc2-c2sc(S(=O)(=O)O)cc2C1(C)C)C(c1c(F)c(SCC(=O)O)cc(F)c1S(=O)(=O)[O-])=c1cc2c(cc1O3)=[N+](C)C(C)(C)c1cc(S(=O)(=O)O)sc1-2 [Compound 41]
fluorescence quantum yield ([1]; in methyl alcohol): 0.72
fluorescence quantum yield ([1]; in water): 0.68

CN1c2cc3c(cc2-c2sc(S(=O)(=O)O)cc2C1(C)C)C(c1c(F)c(SCC(=O)ON2C(=O)CCC2=O)cc(F)c1S(=O)(=O)[O-])=c1cc2c(cc1O3)=[N+](C)C(C)(C)c1cc(S(=O)(=O)O)sc1-2 [Compound 42]
dead cell populations stained, compared with propidium iodide [2]: very similar

CN1c2cc3c(cc2-c2sc(S(=O)(=O)O)cc2C1(C)C)C(c1c(F)c(SCC(=O)NN)cc(F)c1S(=O)(=O)[O-])=c1cc2c(cc1O3)=[N+](C)C(C)(C)c1cc(S(=O)(=O)O)sc1-2 [Compound 44]
filling and fluorescence of microinjected neurons [3]: neurons rapidly fill with the dye throughout their volume and their red fluorescence is readily observable

Cc1ccc(N(CC(=O)O)CC(=O)O)c(OCCOc2cc(C3=c4cc5c(cc4Oc4cc6c(cc43)-c3sc4ccccc4c3C(C)(C)N6C)=[N+](C)C(C)(C)c3c-5sc4ccccc34)ccc2N(CC(=O)[O-])CC(=O)O)c1 [Compound 58]
maximal fluorescence emission ([4]; Ca2+ buffer series, intensity increases with increasing Ca2+): approximately 640 nm
Kd ([4]; at 20° C., free Ca2+ between zero and 35 µM, read-out: dissociation constant (Ca2+)): 57.5 µM

O=S(=O)([O-])c1cc(S(=O)(=O)O)ccc1C1=c2cc3c4c(c2Oc2c1cc1c5c2CCCN5CCC1)CCC[N+]=4CCC3 [sulforhodamine 101]
fluorescence quantum yield of reference standard (φF) [5]: 0.90

Wheat Germ Agglutinin
Quantum Yield [6]: 0.56
